Test results taken from US20220220106A1, “QUINOLINE COMPOUNDS AND PHARMACEUTICAL COMPOSITIONS AND USES THEREOF” (Academy of Military Medical Sciences, priority 2019, published 2022).
Where two headings read alike, the source gives them in different places.

How the values were obtained:
[1] = test system: Enterovirus 71 (EV71) H strain; assay: In vitro anti-EV71 activity (antiviral activity in RD cells, CellTiter-Glo); format: cell-based; settings: for IC50: Enterovirus A, 96 h; for in vitro anti-EV71 activity, in words: EV71, RD cells
How it was run: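 RD cells infected with 100TCID50 EV71 in DMEM+2% FBS, with compound in 10-point three-fold dilutions, cultured 4 days at 37° C. Cell viability by CellTiter-Glo luminescence; inhibition rate relative to cell control fitted to S-curve for IC50. TD50 derived likewise; SI=TD50/IC50.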

[2] = biological target: T1, mTOR kinase (Homo sapiens, UniProt P42345); assay: In vitro inhibitory activity on mTOR kinase (TR-FRET, GFP-4E-BP1 substrate); format: biochemical; settings: for IC50: 0.5 μg/mL mTOR, 0.4 μM GFP-4E-BP1, 3 μM ATP
T1 construct: purchased Thermo Fisher PV4753
T1 sequence (P42345 1360-2549 limits assumed): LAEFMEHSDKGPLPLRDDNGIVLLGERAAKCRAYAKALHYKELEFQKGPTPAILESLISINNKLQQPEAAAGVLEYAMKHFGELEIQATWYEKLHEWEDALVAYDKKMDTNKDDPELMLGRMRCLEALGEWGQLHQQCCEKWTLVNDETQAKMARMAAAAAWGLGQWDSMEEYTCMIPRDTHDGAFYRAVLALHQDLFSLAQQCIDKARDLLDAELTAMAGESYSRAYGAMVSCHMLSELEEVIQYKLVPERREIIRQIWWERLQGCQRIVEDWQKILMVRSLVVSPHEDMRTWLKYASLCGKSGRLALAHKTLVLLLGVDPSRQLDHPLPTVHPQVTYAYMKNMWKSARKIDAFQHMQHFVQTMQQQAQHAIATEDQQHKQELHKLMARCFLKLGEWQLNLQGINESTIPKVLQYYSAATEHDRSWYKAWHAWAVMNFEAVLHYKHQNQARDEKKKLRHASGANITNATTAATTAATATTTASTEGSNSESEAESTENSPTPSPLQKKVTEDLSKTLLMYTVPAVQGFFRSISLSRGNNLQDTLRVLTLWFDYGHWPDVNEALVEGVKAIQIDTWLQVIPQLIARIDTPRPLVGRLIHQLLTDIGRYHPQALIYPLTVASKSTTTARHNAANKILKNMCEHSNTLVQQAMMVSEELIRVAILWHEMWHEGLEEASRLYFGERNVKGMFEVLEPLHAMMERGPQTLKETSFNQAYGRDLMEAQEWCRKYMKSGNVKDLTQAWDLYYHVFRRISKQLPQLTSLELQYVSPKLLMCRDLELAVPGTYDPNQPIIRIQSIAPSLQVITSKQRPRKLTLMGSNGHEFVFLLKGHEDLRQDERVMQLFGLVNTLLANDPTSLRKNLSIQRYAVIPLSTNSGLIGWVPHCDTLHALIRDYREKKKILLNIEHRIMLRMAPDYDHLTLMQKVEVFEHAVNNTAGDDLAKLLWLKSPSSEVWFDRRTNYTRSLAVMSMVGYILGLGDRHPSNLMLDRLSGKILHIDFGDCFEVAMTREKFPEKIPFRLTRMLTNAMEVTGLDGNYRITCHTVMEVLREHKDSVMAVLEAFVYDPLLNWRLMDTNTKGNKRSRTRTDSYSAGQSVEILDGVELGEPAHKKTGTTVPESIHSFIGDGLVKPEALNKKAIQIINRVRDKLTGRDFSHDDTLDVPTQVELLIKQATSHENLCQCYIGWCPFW
Experimental: Preparation of Reaction Buffers:
Basic buffer composition: 50 mM (mmol/L) HEPES (pH 7.5), 1 mM EGTA, 0.01% Tween-20, 10 mM MnCl2, 2 mM DTT (diluted from 500 mM before used).
(2) mTOR kinase buffer solution: 1650 μL of 2.5×mTOR kinase buffer solution was composed of 1640.2 μL of 1× basic buffer and 9.8 μL of mTOR (0.21 mg/mL stock solution), and the final concentration was 0.5 μg/mL.
(3) Detection buffer solution: 3960 μL of 2× detection buffer solution was composed of 3797.1 μL of TR-FRET buffer diluent (purchased from Thermo Fisher, catalog number: PV3574), 4.5 μL of Tb-anti-p4E-BP1 antibody (3.49 μM stock solution, purchased from Thermo Fisher, catalog number: PV4757) and 158 μL of EDTA (500 mM stock solution), and the final concentrations were 2 nM Tb-anti-p4E-BP1 antibody and 10 mM EDTA.
(1) 20 μL of 100% DMSO solution containing 5 mM compound to be tested was added to a 96-well plate.
(2) The compound was serially diluted 3 times in DMSO.
(3) 1 μL of the compound in the previous step was taken, diluted with 19 μL of mTOR kinase buffer, and transferred to another 96-well plate.
(4) 4 μL of mTOR kinase solution (purchased from Thermo Fisher, catalog number: PV4753) was added to a 384-well plate.
(5) 2 μL of the compound in G was taken out and added to the 384-well plate with mTOR kinase, and incubated at room temperature for 15 minutes.
(6) 4 μL of substrate solution was added to initiate the reaction.
The final concentrations of mTOR reaction solution were: 0.5 μg/mL mTOR, 0.4 μM GFP-4E-BP1, 3 μM ATP.
The final concentration of the DMSO solution was 1%.
(7) Incubation was performed for 60 minutes at room temperature.
(8) 10 μL of detection buffer was added. The final concentrations were 2 nM Tb-anti-p4E-BP1 antibody and 10 mM EDTA.
(9) Incubation was performed for 30 minutes at room temperature.
(10) TR-FRET value was read on MD5 multi-mode plate reader (Molecular Devices). The excitation wavelength was 340 nm, the emission wavelength 1 was 495 nm, and the emission wavelength 2 was 520 nm. The ratio of 520 nm/495 nm readings was calculated as TR-FRET value.
IC50 of compound was fitted by nonlinear regression equation:
Y=Bottom+(Top-Bottom)/(1+10^((LogIC50-X)*HillSlope));
X: common logarithm value of compound concentration; Y: TR-FRET value (520 nm/495 nm).

[3] = EV71 H strain, RD cells, 4 days, CellTiter-Glo, read-out: IC50

Row | Compound | IC50 [1, 3] [nM] | IC50 [2] [nM] | inhibitory activity on mTOR kinase, in words [2] | in vitro anti-EV71 activity, in words [1] | IC50 ([1]; EV71, RD) [nM]
1 | O=c1ccc2cnc3ccc(-c4ccc(N5CCCC5)nc4)cc3c2n1-c1cccc(C(F)(F)F)c1 [HTL-7-20, 9-[3-(6-pyrrolidinyl)pyridyl]-2-oxo-1-[3-(trifluoromethyl)phenyl]-1,2-dihydrobenzo[h][1,6]naphthyridine] | 100 ± 10 | 11.3 | – | – | –
2 | COc1ccc(-c2ccc3ncc4ccc(=O)n(-c5cccc(C(F)(F)F)c5)c4c3c2)cn1 [HTL-7-03, 9-[3-(6-methoxy)pyridyl]-2-oxo-1-[3-(trifluoromethyl)phenyl]-1,2-dihydrobenzo[h][1,6]naphthyridine] | 40 ± 10 | 7.25 | excellent inhibitory activity | – | –
3 | O=C(Nc1ccc(-c2ccc3ncc4ccc(=O)n(-c5cccc(C(F)(F)F)c5)c4c3c2)cn1)OCc1ccccc1 [HTL-7-14, 9-[3-(6-benzyloxyamido)pyridyl]-2-oxo-1-[3-(trifluoromethyl)phenyl]-1,2-dihydrobenzo[h][1,6]naphthyridine] | 23700 ± 1020 | 306 | moderate inhibitory activity | – | –
4 | CCCCC(=O)Nc1ccc(-c2ccc3ncc4ccc(=O)n(-c5cccc(C(F)(F)F)c5)c4c3c2)cn1 [HTL-7-08, 9-[3-(6-valerylamino)pyridyl]-2-oxo-1-[3-(trifluoromethyl)phenyl]-1,2-dihydrobenzo[h][1,6]naphthyridine] | 200 ± 20 | 76.6 | – | – | –
5 | O=c1ccc2cnc3ccc(-c4ccc(N5CCOCC5)nc4)cc3c2n1-c1cccc(C(F)(F)F)c1 [HTL-7-18, 9-[3-(6-morpholin-4-yl)pyridyl]-2-oxo-1-[3-(trifluoromethyl)phenyl]-1,2-dihydrobenzo[h][1,6]naphthyridine] | 1800 ± 1170 | 22.7 | – | – | –
6 | Nc1cccc(Nc2ccc3ncc4ccc(=O)n(-c5cccc(C(F)(F)F)c5)c4c3c2)c1 [HTL-6-11, 9-(3-aminophenyl)imino-2-oxo-1-[3-(trifluoromethyl)phenyl]-1,2-dihydrobenzo[h][1,6]naphthyridine] | 890 | 255 | moderate inhibitory activity | moderate activity | –
7 | CCC(=O)Nc1ccc(-c2ccc3ncc4ccc(=O)n(-c5cccc(C(F)(F)F)c5)c4c3c2)cn1 [HTL-6-45, 9-[3-(6-propionylamino)pyridyl]-2-oxo-1-[3-(trifluoromethyl)phenyl]-1,2-dihydrobenzo[h][1,6]naphthyridine] | 27 ± 10 | 29.2 | – | – | –
8 | O=C(Nc1ccc(-c2ccc3ncc4ccc(=O)n(-c5cccc(C(F)(F)F)c5)c4c3c2)cn1)Oc1ccccc1 [HTL-7-15, 9-[3-(6-phenoxyamido)pyridyl]-2-oxo-1-[3-(trifluoromethyl)phenyl]-1,2-dihydrobenzo[h][1,6]naphthyridine] | – | 25 | – | – | 90 ± 20
9 | CN(C)c1ccc(-c2ccc3ncc4ccc(=O)n(-c5cccc(C(F)(F)F)c5)c4c3c2)cn1 [HTL-7-16, 9-[3-(6-N,N-dimethyl)pyridyl]-2-oxo-1-[3-(trifluoromethyl)phenyl]-1,2-dihydrobenzo[h][1,6]naphthyridine] | 90 ± 10 | 8.91 | excellent inhibitory activity | – | –
10 | Nc1cccc(Nc2ccc3ncc4ccc(=O)n(-c5cccc(C(F)(F)F)c5)c4c3c2)n1 [HTL-6-12, 9-[2-(6-aminopyridyl)]imino-2-oxo-1-[3-(trifluoromethyl)phenyl]-1,2-dihydrobenzo[h][1,6]naphthyridine] | 1230 ± 220 | 68.2 | – | moderate activity | –
11 | O=C1Cc2cc(-c3ccc4ncc5ccc(=O)n(-c6cccc(C(F)(F)F)c6)c5c4c3)ccc2N1 [HTL-7-04, 9-[5-(2-oxo)indolyl]-2-oxo-1-[3-(trifluoromethyl)phenyl]-1,2-dihydrobenzo[h][1,6]naphthyridine] | 10500 ± 560 | 240 | moderate inhibitory activity | – | –
